From patent publication US8916604B2, “Compositions and methods for epigenetic modification of nucleic acid sequences” (Rutgers, The State University of New Jersey, priority 2011, dated 2014) come the findings set out here.

Format in all cases: cell-based, mouse
In assay [1] the test system is first 5 CpGs in the promoter region of Nrf2 gene. Put plainly: Bisulfite genomic sequencing of TRAMP C1 cells. To be noted: 5 days, untreated control 96.8%. Here is the method:
The DIM used in the study contains approximately 98% of DIM purchased from Sigma-Aldrich t St. Louis, Mo., USA), TRAMP C1 cells (provided by Dr. Barbara Foster, Department of Pharmacology and Therapeutics, Roswell Park Cancer institute, Buffalo. NY), originally derived from TRAMP prostate tumor, were cultured in Dulbecco's Modified Eagle's Medium (Invitrogen Corp., Carlsbad, Calif. U.S.A.) supplemented with 10% (V/V) fetal bovine serum (FBS) (Invitrogen Corp., Grand Island, N.Y., U.S.A.), penicillin 100 U/ml, and streptomycin 100 μg/ml (Invitrogen Corp., Grand Island, N.Y., U.S.A.), Cells were maintained in a humidified incubator with 5% CO2 at 37° C. Cells were seeded in 10 cm plates for 24 h and then treated with 0.1% DMSO (control) or different concentrations of DIM in 1% FBS containing medium for 5 days. The medium was changed every 2 days (20),
Genomic DNA was isolated from the control or DIM treated TRAMP C1 cells and TRAMP dorso-lateral prostate tissues collected from control and DIM treated groups pooled and homogenized using the DNeasy tissue kit (Qiagen, Valencia, Calif., U.S.A.). The genomic DNAs were extracted and subjected to bisulfite conversion carried out using 750 ng of genomic DNA and applying to EZ DNA Methylation Gold Kits (Zymo Research Corp., Orange, Calif., U.S.A.) following the manufacturer's instructions. […]

Another assay concerns Nrf2. Put plainly: qPCR in TRAMP C1 cells. The following applies: 5 days. The procedure:
(§1) The DIM used in the study contains approximately 98% of DIM purchased from Sigma-Aldrich t St. Louis, Mo., USA), TRAMP C1 cells (provided by Dr. Barbara Foster, Department of Pharmacology and Therapeutics, Roswell Park Cancer institute, Buffalo. NY), originally derived from TRAMP prostate tumor, were cultured in Dulbecco's Modified Eagle's Medium (Invitrogen Corp., Carlsbad, Calif. U.S.A.) supplemented with 10% (V/V) fetal bovine serum (FBS) (Invitrogen Corp., Grand Island, N.Y., U.S.A.), penicillin 100 U/ml, and streptomycin 100 μg/ml (Invitrogen Corp., Grand Island, N.Y., U.S.A.), Cells were maintained in a humidified incubator with 5% CO2 at 37° C. Cells were seeded in 10 cm plates for 24 h and then treated with 0.1% DMSO (control) or different concentrations of DIM in 1% FBS containing medium for 5 days. The medium was changed every 2 days (20), Total RNA were extracted from DIM treated TRAMP C1 cells and were reversed transcribed. The primers, DNMT1, DNMT3a, DNMT3b, NQO1, HO-1, GSTm1, UGT1a1 and control β-actin of qPCR are listed in Table 5 (Integrated DNA. Technologies, Coralville, Iowa, U.S.A.), The qPCR reactions were carried out with 1 μl cDNA product, 50 nM of each primer, and Power SYBR Green master mix (Applied Biosystems, Foster City, Calif., U.S.A.) in 10 μl reactions. The reactions were performed using an ABI Prism 7900HT sequence detection system; specificity of amplification was verified by first-derivative inciting curve analysis using the ABI software (SDS 2.3, Applied Biosystems, Foster City, Calif., U.S.A.). Relative quantification of gene expression profile was calculated using a ΔΔCt method. (RQ manager, Applied Biosystems, Foster City, C. CA, U.S.A.) as we have performed previously (Barve et al., J Pharm Sci., 2008; 94: 4528-45). Three independent experiments were carried out showing similar results. The results are presented as mean±SD.
(In qPCR the cycle at which signal appears reflects the starting amount.)

A further assay deals with DNMT3b. As to the kind of experiment: qPCR in TRAMP C1 cells. The following applies: 5 μM and 10 μM. The procedure:
as §1

In another assay the test system is GSTm1. Put plainly: qPCR in TRAMP C1 cells. The following applies: 5 days. The procedure:
as §1

In another assay the test system is NQO1. As to the kind of experiment: qPCR in TRAMP C1 cells. To be noted: 5 days. The procedure: as §1
The next assay relates to DNMT1. Put plainly: qPCR in TRAMP C1 cells. The following applies: 5 μM and 10 μM, p<0.05. Here is the method:
as §1

The subject of the next assay is DNMT3a. Put plainly: qPCR in TRAMP C1 cells. To be noted: 5 μM, p<0.05. The procedure: as §1

Each structure is given as a SMILES string.

For the compound `c1ccc2c(Cc3c[nH]c4ccccc34)c[nH]c2c1` [DIM, 3,3′-diindolylmethane], the “methylation of the first 5 CpGs of Nrf2 promoter” value in assay [1] (2.5 μM) is given as 73.7%; in assay [1] (5 μM), 55.8%. Besides, the “Nrf2 mRNA expression” value in the assay with Nrf2 is recorded as “enhanced”. Moreover, the “DNMT3b mRNA expression” value with DNMT3b was “suppressed”. Moreover, in the assay with GSTm1, the “GSTm1 mRNA expression” value is “enhanced”. For the same compound, the “NQO1 mRNA expression” value in the assay on NQO1 is “enhanced”. In addition, the “DNMT1 mRNA expression” value in the assay on DNMT1 is recorded as “significantly suppressed”. Also, the “DNMT3a mRNA expression” value with DNMT3a is “suppressed”.
